Assay results taken from patent publication US11427558B1, “Indazoles and azaindazoles as LRRK2 inhibitors” (ESCAPE Bio, Inc., priority 2019, dated 2022).
pIC50: −log10 of the molar value.

What was measured:
[1] = target: Recombinant wild type LRRK2 protein (Homo sapiens (Human), UniProt Q5S007); test: LRRK2 kinase activity, LanthaScreen TR-FRET assay (wild type); assay type: biochemical; settings: LRRKtide 400 nM, 25 μM ATP, 60 min; read-out: LRRK2 WT IC50
Method in brief: (§1)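 Recombinant human wild-type or G2019S LRRK2 phosphorylated fluorescein-labelled LRRKtide (ERM-based) with ATP and serially diluted compound for 60 min at room temperature.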

[2] = target: Recombinant G2019S-LRRK2 protein (Homo sapiens (Human), UniProt Q5S007, G2019S); test: LRRK2 kinase activity, LanthaScreen TR-FRET assay (G2019S); assay type: biochemical; settings: LRRKtide 400 nM, 25 μM ATP, 60 min
Method in brief: as §1

Sequence of Recombinant G2019S-LRRK2 protein (Q5S007 whole entry G2019S): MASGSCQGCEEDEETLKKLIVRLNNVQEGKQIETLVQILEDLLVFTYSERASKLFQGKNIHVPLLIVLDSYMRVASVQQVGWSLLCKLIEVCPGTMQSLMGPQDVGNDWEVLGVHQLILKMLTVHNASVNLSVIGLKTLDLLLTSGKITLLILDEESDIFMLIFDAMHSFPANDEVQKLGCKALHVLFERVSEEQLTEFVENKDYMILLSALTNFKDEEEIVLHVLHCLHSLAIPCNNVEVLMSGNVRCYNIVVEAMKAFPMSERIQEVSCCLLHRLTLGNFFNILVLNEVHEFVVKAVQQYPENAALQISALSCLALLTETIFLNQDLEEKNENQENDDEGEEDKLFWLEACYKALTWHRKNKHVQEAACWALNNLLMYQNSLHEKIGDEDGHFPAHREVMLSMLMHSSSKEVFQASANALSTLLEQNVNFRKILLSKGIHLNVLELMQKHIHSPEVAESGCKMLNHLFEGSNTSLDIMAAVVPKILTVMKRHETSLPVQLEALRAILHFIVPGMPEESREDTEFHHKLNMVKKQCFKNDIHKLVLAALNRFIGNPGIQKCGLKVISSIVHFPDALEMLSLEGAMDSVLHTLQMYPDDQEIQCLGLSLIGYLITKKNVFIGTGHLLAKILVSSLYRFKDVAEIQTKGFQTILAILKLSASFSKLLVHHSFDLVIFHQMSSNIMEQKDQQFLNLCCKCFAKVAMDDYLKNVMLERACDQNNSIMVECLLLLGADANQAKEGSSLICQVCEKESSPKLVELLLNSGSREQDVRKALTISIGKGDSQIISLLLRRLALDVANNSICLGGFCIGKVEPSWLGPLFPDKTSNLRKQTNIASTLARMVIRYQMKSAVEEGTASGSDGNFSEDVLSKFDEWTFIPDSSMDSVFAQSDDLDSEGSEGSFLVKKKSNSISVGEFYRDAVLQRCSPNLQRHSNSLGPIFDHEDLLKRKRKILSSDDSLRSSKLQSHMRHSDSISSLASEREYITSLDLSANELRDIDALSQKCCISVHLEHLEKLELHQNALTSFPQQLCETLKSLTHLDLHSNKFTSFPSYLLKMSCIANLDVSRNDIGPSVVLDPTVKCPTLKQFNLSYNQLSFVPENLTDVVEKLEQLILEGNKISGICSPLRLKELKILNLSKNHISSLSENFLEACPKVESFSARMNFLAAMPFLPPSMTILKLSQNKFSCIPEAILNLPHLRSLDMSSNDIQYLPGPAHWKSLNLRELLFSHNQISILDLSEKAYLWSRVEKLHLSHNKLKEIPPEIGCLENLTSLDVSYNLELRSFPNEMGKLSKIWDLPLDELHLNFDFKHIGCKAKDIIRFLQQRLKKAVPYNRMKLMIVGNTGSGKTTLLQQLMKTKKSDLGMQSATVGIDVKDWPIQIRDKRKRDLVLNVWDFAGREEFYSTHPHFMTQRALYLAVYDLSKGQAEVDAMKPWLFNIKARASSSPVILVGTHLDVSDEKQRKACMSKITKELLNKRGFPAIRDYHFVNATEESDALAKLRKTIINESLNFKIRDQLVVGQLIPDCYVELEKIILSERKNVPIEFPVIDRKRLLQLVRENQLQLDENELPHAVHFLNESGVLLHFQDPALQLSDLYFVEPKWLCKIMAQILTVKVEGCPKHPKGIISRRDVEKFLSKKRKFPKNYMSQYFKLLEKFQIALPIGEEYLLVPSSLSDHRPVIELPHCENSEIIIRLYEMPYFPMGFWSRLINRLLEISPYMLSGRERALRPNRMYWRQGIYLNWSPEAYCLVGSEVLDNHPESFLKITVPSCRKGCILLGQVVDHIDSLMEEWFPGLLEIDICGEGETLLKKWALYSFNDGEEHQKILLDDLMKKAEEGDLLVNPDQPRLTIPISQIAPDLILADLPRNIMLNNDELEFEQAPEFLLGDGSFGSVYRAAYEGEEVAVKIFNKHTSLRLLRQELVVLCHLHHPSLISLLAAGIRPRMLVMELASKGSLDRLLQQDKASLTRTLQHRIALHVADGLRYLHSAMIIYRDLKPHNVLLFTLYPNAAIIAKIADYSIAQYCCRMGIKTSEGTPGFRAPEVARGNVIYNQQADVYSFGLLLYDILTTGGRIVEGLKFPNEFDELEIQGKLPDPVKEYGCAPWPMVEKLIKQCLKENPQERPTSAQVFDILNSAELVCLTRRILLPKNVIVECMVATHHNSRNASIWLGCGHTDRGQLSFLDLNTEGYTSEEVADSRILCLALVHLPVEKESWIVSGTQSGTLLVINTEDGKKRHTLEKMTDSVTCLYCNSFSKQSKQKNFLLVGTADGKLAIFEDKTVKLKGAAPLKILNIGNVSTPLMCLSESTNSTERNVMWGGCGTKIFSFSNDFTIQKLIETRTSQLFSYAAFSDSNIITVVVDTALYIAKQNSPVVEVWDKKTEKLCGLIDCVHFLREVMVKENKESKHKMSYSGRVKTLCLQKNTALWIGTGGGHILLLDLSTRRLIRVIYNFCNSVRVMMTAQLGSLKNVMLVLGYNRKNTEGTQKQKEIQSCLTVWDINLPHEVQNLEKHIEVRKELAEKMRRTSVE
Sequence of Recombinant wild type LRRK2 protein (Q5S007 whole entry): as the sequence (Q5S007 whole entry G2019S) above, with S2019G counted along it

How did the pIC50 [1] turn out when `Cc1cccc(-c2n[nH]c3ccc(NC(=O)c4ncc(C#N)c(C)c4C)cc23)n1` [Example 182, 5-Cyano-3,4-dimethyl-N-(3-(6-methylpyridin-2-yl)-1H-indazol-5-yl)picolinamide] was run?
Its pIC50 is 6.00 to 7.00.

And the pIC50 [2]?
The pIC50 was over 7.00.

Which results are given for `Cc1c(C#N)cnc(C(=O)Nc2ccc3[nH]nc(-c4cn[nH]c4)c3c2)c1C` [Example 183, N-(3-(1H-Pyrazol-4-yl)-1H-indazol-5-yl)-5-cyano-3,4-dimethylpicolinamide]?
pIC50 [1]: > 7.00; pIC50 [2]: > 7.00

`Cc1c(C(=O)Nc2ccc3[nH]nc(-c4cnco4)c3c2)nc(Cl)c(C#N)c1C` [Example 184, 6-Chloro-5-cyano-3,4-dimethyl-N-(3-(oxazol-5-yl)-1H-indazol-5-yl)picolinamide] was tested. Which pIC50 [1] did it give?
Its pIC50 is over 7.00.

What about the pIC50 [2] of the same molecule?
Its pIC50 is over 7.00.

`Cc1nc(C(=O)Nc2ccc3[nH]nc(-c4cnn(C(F)F)c4)c3c2)c(C)c(C)c1C#N` [Example 185, 5-Cyano-N-(3-(1-(difluoromethyl)-1H-pyrazol-4-yl)-1H-indazol-5-yl)-3,4,6-trimethylpicolinamide] was tested. Which pIC50 [1] did it give?
Its pIC50 is over 7.00.

What about the pIC50 [2] of the same molecule?
Its pIC50 is over 7.00.

With `Cc1c(C#N)cnc(C(=O)Nc2ccc3[nH]nc(-c4ccn(C)c4)c3c2)c1C` [Example 186, 5-cyano-3,4-dimethyl-N-(3-(1-methyl-1H-pyrrol-3-yl)-1H-indazol-5-yl)picolinamide] as the molecule, how does the pIC50 [1] read?
Its pIC50 is over 7.00.

And the pIC50 [2]?
The pIC50 was over 7.00.

With `Cc1c(C#N)cnc(C(=O)Nc2ccc3[nH]nc(-c4cnn(C)c4)c3c2)c1C` [Example 187, 5-Cyano-3,4-dimethyl-N-(3-(1-methyl-1H-pyrazol-4-yl)-1H-indazol-5-yl)picolinamide] as the molecule, how does the pIC50 [1] read?
Its pIC50 is over 7.00.

What about the pIC50 [2] of the same molecule?
Its pIC50 is over 7.00.

What does the source list for `N#Cc1ccc(F)c(C(=O)Nc2ccc3[nH]nc(-c4cnco4)c3c2)c1F` [Example 188, 3-Cyano-2,6-difluoro-N-(3-(oxazol-5-yl)-1H-indazol-5-yl)benzamide]?
pIC50 [1]: > 7.00; pIC50 [2]: > 7.00

`COc1cc(C#N)ccc1C(=O)Nc1ccc2[nH]nc(-c3cnn(C(F)F)c3)c2c1` [Example 189, 4-Cyano-N-(3-(1-(difluoromethyl)-1H-pyrazol-4-yl)-1H-indazol-5-yl)-2-methoxybenzamide] was tested. Which pIC50 [1] did it give?
Its pIC50 is over 7.00.

What about the pIC50 [2] of the same molecule?
Its pIC50 is over 7.00.

With `Cc1cc(C#N)cc(F)c1C(=O)Nc1ccc2[nH]nc(-c3cnco3)c2c1` [Example 190, 4-Cyano-2-fluoro-6-methyl-N-(3-(oxazol-5-yl)-1H-indazol-5-yl)benzamide] as the molecule, how does the pIC50 [1] read?
The pIC50 was over 7.00.

And the pIC50 [2]?
The pIC50 was over 7.00.

With `Cc1cc(-c2n[nH]c3ccc(NC(=O)c4ncc(C#N)c(C)c4C)cc23)cc(C)n1` [Example 191, 5-Cyano-N-(3-(2,6-dimethylpyridin-4-yl)-1H-indazol-5-yl)-3,4-dimethylpicolinamide] as the molecule, how does the pIC50 [1] read?
Its pIC50 is over 7.00.

What about the pIC50 [2] of the same molecule?
The pIC50 was over 7.00.

`N#Cc1cccc(C(=O)Nc2ccc3[nH]nc(-c4cnn(C(F)F)c4)c3c2)c1C(F)(F)F` [Example 192, 3-Cyano-N-(3-(1-(difluoromethyl)-1H-pyrazol-4-yl)-1H-indazol-5-yl)-2-(trifluoromethyl)benzamide] was tested. Which pIC50 [1] did it give?
The pIC50 was over 7.00.

And the pIC50 [2]?
Its pIC50 is over 7.00.

Which results are given for `Cc1ccc(C#N)c(C)c1C(=O)Nc1ccc2[nH]nc(-c3cnn(C(F)F)c3)c2c1` [Example 193, 3-Cyano-N-(3-(1-(difluoromethyl)-1H-pyrazol-4-yl)-1H-indazol-5-yl)-2,6-dimethylbenzamide]?
pIC50 [1]: > 7.00; pIC50 [2]: > 7.00

Which results are given for `COc1cc(-c2n[nH]c3ccc(NC(=O)c4c(C)c(C#N)nn4C)cc23)ccn1` [Example 194, 3-Cyano-N-(3-(2-methoxypyridin-4-yl)-1H-indazol-5-yl)-1,4-dimethyl-1H-pyrazole-5-carboxamide]?
pIC50 [1]: 6.00 to 7.00; pIC50 [2]: > 7.00

What does the source list for `Cc1c(C#N)nn(C)c1C(=O)Nc1ccc2[nH]nc(-c3cnn(C(F)F)c3)c2c1` [Example 195, 3-Cyano-N-(3-(1-(difluoromethyl)-1H-pyrazol-4-yl)-1H-indazol-5-yl)-1,4-dimethyl-1H-pyrazole-5-carboxamide]?
pIC50 [1]: > 7.00; pIC50 [2]: > 7.00

How did the pIC50 [1] turn out when `Cc1c(C#N)nn(C)c1C(=O)Nc1ccc2[nH]nc(-c3cnoc3)c2c1` [Example 196, 3-Cyano-N-(3-(isoxazol-4-yl)-1H-indazol-5-yl)-1,4-dimethyl-1H-pyrazole-5-carboxamide] was run?
Its pIC50 is 6.00 to 7.00.

What about the pIC50 [2] of the same molecule?
Its pIC50 is over 7.00.

With `Cc1coc(-c2n[nH]c3ccc(NC(=O)c4ncc(C#N)c(C)c4C)cc23)n1` [Example 197, 5-Cyano-3,4-dimethyl-N-(3-(4-methyloxazol-2-yl)-1H-indazol-5-yl)picolinamide] as the molecule, how does the pIC50 [1] read?
Its pIC50 is 6.00 to 7.00.

And the pIC50 [2]?
The pIC50 was over 7.00.

How did the pIC50 [1] turn out when `Cc1c(C#N)cnc(C(=O)Nc2ccc3[nH]nc(-c4ncco4)c3c2)c1C` [Example 198, 5-Cyano-3,4-dimethyl-N-(3-(oxazol-2-yl)-1H-indazol-5-yl)picolinamide] was run?
Its pIC50 is 6.00 to 7.00.

And the pIC50 [2]?
Its pIC50 is over 7.00.

How did the pIC50 [1] turn out when `N#Cc1cccc(C(=O)Nc2ccc3[nH]nc(-c4cnco4)c3c2)c1F` [Example 199, 3-Cyano-2-fluoro-N-(3-(oxazol-5-yl)-1H-indazol-5-yl)benzamide] was run?
Its pIC50 is over 7.00.

And the pIC50 [2]?
Its pIC50 is over 7.00.

With `COc1cc(C#N)ccc1C(=O)Nc1ccc2[nH]nc(-c3cnco3)c2c1` [Example 200, 4-Cyano-2-methoxy-N-(3-(oxazol-5-yl)-1H-indazol-5-yl)benzamide] as the molecule, how does the pIC50 [1] read?
Its pIC50 is over 7.00.

And the pIC50 [2]?
The pIC50 was over 7.00.

How did the pIC50 [1] turn out when `COc1cc(C#N)cc(C)c1C(=O)Nc1ccc2[nH]nc(-c3cnn(C(F)F)c3)c2c1` [Example 201, 4-Cyano-N-(3-(1-(difluoromethyl)-1H-pyrazol-4-yl)-1H-indazol-5-yl)-2-methoxy-6-methylbenzamide] was run?
Its pIC50 is over 7.00.

What about the pIC50 [2] of the same molecule?
The pIC50 was over 7.00.

`Cc1nc(C(=O)Nc2ccc3[nH]nc(-c4cnco4)c3c2)c(C)c(C)c1C#N` [Example 202, 5-Cyano-3,4,6-trimethyl-N-(3-(oxazol-5-yl)-1H-indazol-5-yl)picolinamide] was tested. Which pIC50 [1] did it give?
Its pIC50 is over 7.00.

And the pIC50 [2]?
Its pIC50 is over 7.00.

What does the source list for `Cc1ccc(C#N)c(F)c1C(=O)Nc1ccc2[nH]nc(-c3cnco3)c2c1` [Example 203, 3-Cyano-2-fluoro-6-methyl-N-(3-(oxazol-5-yl)-1H-indazol-5-yl)benzamide]?
pIC50 [1]: > 7.00; pIC50 [2]: > 7.00

How did the pIC50 [1] turn out when `Cc1c(C#N)cnc(C(=O)Nc2ccc3[nH]nc(-c4ccn(C(F)F)n4)c3c2)c1C` [Example 204, 5-Cyano-N-(3-(1-(difluoromethyl)-1H-pyrazol-3-yl)-1H-indazol-5-yl)-3,4-dimethylpicolinamide] was run?
The pIC50 was 6.00 to 7.00.

What about the pIC50 [2] of the same molecule?
The pIC50 was over 7.00.

`CCOc1cc(-c2n[nH]c3ccc(NC(=O)c4ncc(C#N)c(C)c4C)cc23)ccn1` [Example 205, 5-Cyano-N-(3-(2-ethoxypyridin-4-yl)-1H-indazol-5-yl)-3,4-dimethylpicolinamide] was tested. Which pIC50 [1] did it give?
The pIC50 was over 7.00.

What about the pIC50 [2] of the same molecule?
Its pIC50 is over 7.00.

What does the source list for `N#Cc1cnc(C(=O)Nc2ccc3[nH]nc(-c4cnco4)c3c2)c2c1CCC2` [Example 206, 4-Cyano-N-(3-(oxazol-5-yl)-1H-indazol-5-yl)-6,7-dihydro-5H-cyclopenta[c]pyridine-1-carboxamide]?
pIC50 [1]: 5.00 to 6.00; pIC50 [2]: > 7.00

What does the source list for `Cc1cnc(-c2n[nH]c3ccc(NC(=O)c4ncc(C#N)c(C)c4C)cc23)o1` [Example 207, 5-Cyano-3,4-dimethyl-N-(3-(5-methyloxazol-2-yl)-1H-indazol-5-yl)picolinamide]?
pIC50 [1]: > 7.00; pIC50 [2]: > 7.00

What does the source list for `COc1cc(C#N)cc(C)c1C(=O)Nc1ccc2[nH]nc(-c3cnco3)c2c1` [Example 208, 4-Cyano-2-methoxy-6-methyl-N-(3-(oxazol-5-yl)-1H-indazol-5-yl)benzamide]?
pIC50 [1]: > 7.00; pIC50 [2]: > 7.00

`N#Cc1cccc(C(=O)Nc2ccc3[nH]nc(-c4cnco4)c3c2)c1Cl` [Example 209, 2-chloro-3-cyano-N-(3-(oxazol-5-yl)-1H-indazol-5-yl)benzamide] was tested. Which pIC50 [1] did it give?
Its pIC50 is over 7.00.

What about the pIC50 [2] of the same molecule?
Its pIC50 is over 7.00.

With `Cc1nc(C(=O)Nc2ccc3[nH]nc(-c4cnoc4)c3c2)c(C)c(C)c1C#N` [Example 210, 5-Cyano-N-(3-(isoxazol-4-yl)-1H-indazol-5-yl)-3,4,6-trimethylpicolinamide] as the molecule, how does the pIC50 [1] read?
Its pIC50 is over 7.00.

And the pIC50 [2]?
The pIC50 was over 7.00.

With `COc1c(C#N)cnc(C(=O)Nc2ccc3[nH]nc(-c4cnco4)c3c2)c1C` [Example 211, 5-Cyano-4-methoxy-3-methyl-N-(3-(oxazol-5-yl)-1H-indazol-5-yl)picolinamide] as the molecule, how does the pIC50 [1] read?
Its pIC50 is over 7.00.

And the pIC50 [2]?
The pIC50 was over 7.00.

With `N#Cc1cccc(C(=O)Nc2ccc3[nH]nc(-c4cnco4)c3c2)c1OC(F)(F)F` [Example 212, 3-Cyano-N-(3-(oxazol-5-yl)-1H-indazol-5-yl)-2-(trifluoromethoxy)benzamide] as the molecule, how does the pIC50 [1] read?
The pIC50 was over 7.00.

And the pIC50 [2]?
Its pIC50 is over 7.00.

How did the pIC50 [1] turn out when `Cc1c(C(=O)Nc2ccc3[nH]nc(-c4cnco4)c3c2)cc(C#N)c(=O)n1C` [Example 213, 5-Cyano-1,2-dimethyl-N-(3-(oxazol-5-yl)-1H-indazol-5-yl)-6-oxo-1,6-dihydropyridine-3-carboxamide] was run?
Its pIC50 is over 7.00.

And the pIC50 [2]?
Its pIC50 is over 7.00.

With `C=C(C)c1c(C#N)cccc1C(=O)Nc1ccc2[nH]nc(-c3cnco3)c2c1` [Example 214, 3-Cyano-N-(3-(oxazol-5-yl)-1H-indazol-5-yl)-2-(prop-1-en-2-yl)benzamide] as the molecule, how does the pIC50 [1] read?
Its pIC50 is over 7.00.

And the pIC50 [2]?
Its pIC50 is over 7.00.

With `Cc1c(C#N)cnc(C(=O)Nc2ccc3[nH]nc(-c4cnn(C5CCN(C)CC5)c4)c3c2)c1C` [Example 215, 5-Cyano-3,4-dimethyl-N-(3-(1-(1-methylpiperidin-4-yl)-1H-pyrazol-4-yl)-1H-indazol-5-yl)picolinamide] as the molecule, how does the pIC50 [1] read?
The pIC50 was over 7.00.

And the pIC50 [2]?
The pIC50 was over 7.00.

With `Cc1c(C(=O)Nc2ccc3[nH]nc(-c4cnoc4)c3c2)nc(Cl)c(C#N)c1C` [Example 216, 6-Chloro-5-cyano-N-(3-(isoxazol-4-yl)-1H-indazol-5-yl)-3,4-dimethylpicolinamide] as the molecule, how does the pIC50 [1] read?
The pIC50 was over 7.00.

And the pIC50 [2]?
The pIC50 was over 7.00.

With `Cc1c(C#N)cnc(C(=O)Nc2ccc3[nH]nc(-c4cnn(C(C)C)c4)c3c2)c1C` [Example 217, 5-Cyano-N-(3-(1-isopropyl-1H-pyrazol-4-yl)-1H-indazol-5-yl)-3,4-dimethylpicolinamide] as the molecule, how does the pIC50 [1] read?
Its pIC50 is over 7.00.

What about the pIC50 [2] of the same molecule?
The pIC50 was over 7.00.
